The text below walks through data of publication PMC3869945, “Synthetic 1,4-Pyran Naphthoquinones Are Potent Inhibitors of Dengue Virus Replication” (PLoS ONE, 2013).

Some results are limits rather than exact numbers.

Series [1] deals with T1, DENV-2 NS3 (full-length, NS3FL) ATPase activity (Dengue virus type 2, UniProt P14340).
T1 construct: The fragment corresponding to amino acids 1 to 619 of NS3FL was amplified; 10xHis (N, cleaved yes); ubiquitin (N, cleaved yes); made in house; host or cells: E. coli Rosetta (λDE3)
Put plainly: Colorimetric NTPase (ATPase) assay with purified full-length NS3. It is filed as biochemical. The conditions noted are these: for NS3 ATPase inhibition, statistical difference from control (unpaired t-test, p < 0.05): screening in duplicate; for IC50: compound ≤ 100 μM. How it is done: The ATPase activity of NS3 was determined by measuring the extension of hydrolysis of NTP to NDP and Pi. The amount of free inorganic phosphate released was calculated by the hydrolysis of ATP using a standard curve with known Pi concentrations, and the reaction was measured at 660 nm using SpectraMax M5 spectrophotometer (Molecular Devices). Compounds were diluted from 20 mM or 40 mM stock solution prepared in 100% DMSO. These compounds were diluted to a final concentration of 10% DMSO in the assay buffer. The compound screening assay was performed in 96-well plate, and in each well reaction containing 600 nM NS3FL, 40 mM Tris-HCl (pH 7.5), 5 mM MgCl2, 5 mM DTT, 0.1M KCl were pre-incubated with 50µM of compounds (or varying concentrations of the compound) for 10 min at 30 °C. The kinetic activity was initiated by the addition of 1 mM of ATP substrate and incubation for 10 min at 30°C. Reactions were stopped with addition of 20 μL 50% TCA, followed by 80 μL of ammonium molibidate solution and 40 μL of reducing agent. Absorbance was read and data were processed on Sigma Plot Version 10.0. The initial reaction velocities (Vi) of product formation were determined from progress curves using the linear regression method and data converted to residual activity and/or calculate IC50% assuming Michelis-Mentem kinetics. The experiments were carried out in duplicate and the statistical difference between the inhibition reaction in the presence of each compound and the control were evaluated by unpaired t-test analysis.
Once the ATPase activity was confirmed after purification process, we used the colorimetric assay developed by Fiske and Subbarow for the screening of compounds, which was performed using 600 nM of NS3FL in reactions containing 40 mM Tris-HCl (pH 7.5), 5 mM DTT, 100 mM KCl, 5 mM MgCl2, and 1 mM ATP and 50 µM of the pyran naphthoquinones 8, 9 and 10. […] The percentage of NS3FL ATPase activity inhibition varied from 15 to 50% of the untreated control.

For another series, the system named is Vero cells. Put plainly: Cytotoxicity assay, neutral red staining (confirmed with CellTiter Blue). It is filed as cell-based, African Green Monkey. The conditions noted are these: for Viability of uninfected host cell cultures: up to 100 µM, 72 h, neutral red. How it is done: Cell toxicity of all compounds used in this work was tested in Vero and HepG2 cells by Neutral Red dye exclusion assay. Briefly, cells were cultured with varying concentrations of each compound and incubated for 72 hours at 37°C. After this period, the cells were incubated with 0.05% neutral red solution for 3 hours, washed with 1X PBS and fixed with 20% paraformaldehyde for 5 min. Cells were washed again and the incorporated dye was extracted with a 50% methanol and 1% acetic acid solution for 20 min. Plates were read at 490nm in a ELISA reader. Results obtained with the neutral red dye exclusion assay were confirmed using the CellTiter Blue Cell Viability Kit (Promega, Madison - USA) according to manufacturer’s instructions.
The compounds were initially screened regarding their toxicity level after culturing Vero and HepG2 cells with the effective concentration of each compound. After 72h, cellular viability was analyzed by neutral red staining and confirmed by the conversion of redox resazurin into fluorescent resorufin.

The test system of series [2] is DENV-2. The series is described as follows: Virus replication inhibition assay in Vero cells, cell-free viral RNA by qPCR. Type of series: cell-based. The conditions noted are these: for % of Inhibition of DENV-2 Replication (qPCR): DENV-2 infected Vero cells, m.o.i 0.1, 72 h, highest non-toxic concentration (μM, in parentheses after label): 8d 25, 9b and 9c 100, 10a and 10b 12.5, Ribavirin 200; for Inhibition of DENV-2 replication (in words): highest non-toxic concentration; for IC50: qPCR, 100 to 0.4 μM dose response, Hill regression. As to the method:
In order to test the anti-viral effect of the compounds used in this work, monolayers of Vero cells were inoculated with DENV-2 at an m.o.i of 0.1 for 2 hours. After this period, cells were washed with 1X PBS to remove unbound viruses and fresh media was added with the highest non-cytotoxic concentration of the compounds. Infected cells were also cultured with culture medium or 1% DMSO, as negative controls, or with 200μM of Ribavirin® as reference drug for DENV replication inhibition. After 72 h, culture supernatants were collected and viral RNA was extracted using the QIAamp Viral RNA Mini Kit (Qiagen – Hamburg, Germany), according to manufacturer’s instructions. The synthesis of cDNA was performed with random hexamers as primers and the High Capacity cDNA kit (LifeTechnologies – Carlsbad, USA) according to manufacturer’s instructions. The detection and quantification of the cell free viral genomic RNA was performed by qPCR using specific primers and probe hybridizing in the protein E gene region as already described. qPCR conditions were as follow: a reaction mixture consisting of 12.5μL of TaqMan (Invitrogen – Carlsbad, USA), 50 pmol of each primer, 9 pmol of the probe and 7μL of the cDNA reaction to a final volume of 25μL was submitted to 40 cycles of amplification in a ABI PRISM 7000 Detection System (LifeTechnologies – Carlsbad, USA) using 60°C annealing temperature. Amplification results were analyzed using the 7000 SDS software (LifeTechnologies – Carlsbad, USA) and the threshold parameter was manually adjusted.
The efficiency of the qPCR was calculated based on the slope of a Ct versus Template Concentration curve. To generate the calibration curve, a purified stock of DENV-2 containing 10^5 Plaque forming unities/ml was serially diluted and used to RNA extraction followed by cDNA synthesis, which was in turn used as template for the qPCR. A value of -3.30 was achieved, which represents an efficiency close to 100%. Based on this efficiency for the qPCR, the percentage of inhibition of DENV replication was calculated by the ΔΔCT method.
A dose response curve was also performed with the compounds that inhibited DENV replication by at least 30%. For this purpose, DENV-2-infected Vero cells were cultured with the selected compounds at concentrations varying from 100 to 0.4 μM and virus replication was measured by qPCR as above. IC50 values were obtained by the Hill’s regression curve using the software Prism 5. Experiments were always performed in triplicates. All results were confirmed in HepG2 cells by qPCR and by TCID50 in Vero cells.

In series [3] the test system is DENV-2. The series is described as follows: Tissue Culture Infectious Dose (TCID50) confirmation of replication inhibition in Vero cells. Type of series: cell-based. The note with it: DENV-2 infected Vero cells. As to the method: Viruses used in this work include a DENV-2 prototype 16681 and a Brazilian isolate (44/02 - from Fundação Oswaldo Cruz – RJ - Brazil). Virus stocks were generated by infecting Vero cells at an 80% confluence with a multiplicity of infection (m.o.i) of 0.1. Infected cells were incubated at 37 °C for 5-7 days and inspected every day until the cytopathic effect was clearly observed. Supernatants were then collected, centrifuged at 1,200 x g for 10 min. to clear cellular debris and stored at -70°C until use. The titter of viral stocks was measured by TCID(50)% using serial dilutions of 10^1 to 10^7 of the viral stocks inoculated into Vero cells. The viral titter was calculated according with Reed and Munch.
A dose response curve was also performed with the compounds that inhibited DENV replication by at least 30%. For this purpose, DENV-2-infected Vero cells were cultured with the selected compounds at concentrations varying from 100 to 0.4 μM and virus replication was measured by qPCR as above. […]
To analyze the impact of the selected compounds on DENV replication, cells were infected and cultured with the highest non-toxic concentration of each compound and virus replication was analyzed by qRT-PCR. […] The differences in the percentage of inhibition when viral replication was measured by qRT-PCR and TCID50 were probably due to the differences in the sensibility of these assays. […]

Series [4] deals with T2, DENV-2 NS3 protease domain linked to the NS2B cofactor (Dengue virus type 2, UniProt P14340).
T2 construct: the NS3 protease domain linked to the NS2B cofactor was purified; made in house
Put plainly: NS3 protease inhibition assay with NS2B cofactor. Type of series: biochemical. The note with it: in the presence of the NS2b cofactor, data not shown. As to the method: We also evaluated whether the compounds were able to suppress the proteolytic activity of DENV-2 NS3. Several studies have shown that the NS2B cofactor is required by the protease domain to form a proteolytic active domain [47, 48]. Therefore, the NS3 protease domain linked to the NS2B cofactor was purified and the inhibition assay was performed as described by Leung and co-workers.

T1 sequence (P14340 1476-2093): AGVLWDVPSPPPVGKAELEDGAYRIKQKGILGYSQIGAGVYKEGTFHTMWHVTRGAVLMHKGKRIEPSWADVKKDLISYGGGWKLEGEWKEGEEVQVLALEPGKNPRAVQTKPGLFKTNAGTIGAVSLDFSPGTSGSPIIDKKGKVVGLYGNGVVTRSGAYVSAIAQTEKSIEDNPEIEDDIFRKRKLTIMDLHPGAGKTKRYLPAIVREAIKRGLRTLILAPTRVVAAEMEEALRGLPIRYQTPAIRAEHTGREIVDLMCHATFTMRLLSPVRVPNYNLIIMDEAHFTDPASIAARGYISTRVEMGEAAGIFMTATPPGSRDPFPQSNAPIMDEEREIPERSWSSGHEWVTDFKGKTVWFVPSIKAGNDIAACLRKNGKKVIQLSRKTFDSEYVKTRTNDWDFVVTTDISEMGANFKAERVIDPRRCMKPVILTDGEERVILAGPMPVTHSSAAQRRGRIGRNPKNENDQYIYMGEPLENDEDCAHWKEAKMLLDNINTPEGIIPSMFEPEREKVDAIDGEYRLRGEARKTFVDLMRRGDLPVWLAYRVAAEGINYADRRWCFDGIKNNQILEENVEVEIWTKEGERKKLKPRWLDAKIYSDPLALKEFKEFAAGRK
T2 sequence (P14340 1476-1653): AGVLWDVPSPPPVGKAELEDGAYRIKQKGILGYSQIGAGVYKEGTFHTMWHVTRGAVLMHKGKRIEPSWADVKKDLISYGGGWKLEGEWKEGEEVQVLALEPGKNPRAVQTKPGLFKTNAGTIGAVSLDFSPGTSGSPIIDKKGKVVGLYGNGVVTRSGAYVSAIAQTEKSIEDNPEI
T2 sequence (P14340 1398-1437): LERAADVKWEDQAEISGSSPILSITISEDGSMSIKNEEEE

`Cc1ccc(C2CC(c3cccs3)C3=C(O2)c2ccccc2C(=O)C3=O)cc1` (stereo not drawn) [8c]: the “Reduction of the NS3 ATPase activity” value in series [1] (50 µM compound, 600 nM NS3FL, 1 mM ATP) is listed as “two-fold reduction”. In series [1] (50 µM compound), the “NS3 ATPase inhibition, statistical difference from control (unpaired t-test, p < 0.05)” value is listed as “statistically different”. For the same molecule, in the series on Vero cells (concentration as low as 0.4 μM), the “Toxicity to the cell culture” value is listed as “highly toxic”.
Regarding `Cc1ccc(C2CC(c3ccccc3)C3=C(O2)c2ccccc2C(=O)C3=O)cc1` (stereo not drawn) [8d], the “% of Inhibition of DENV-2 Replication (qPCR)” value (“% of Inhibition … (qPCR)” below) with DENV-2 [2] was determined as 0%. Moreover, the “Inhibition of DENV-2 replication (in words)” value in the series with DENV-2 [2] (Vero cells) is “did not inhibit DENV-2 replication”.
Turning to `NC(=O)c1ncn([C@@H]2O[C@H](CO)[C@@H](O)[C@H]2O)n1` [Ribavirin, reference compound], in the series with DENV-2 [2], the “% of Inhibition … (qPCR)” value stood at 78.00%.
As to `Cc1ccc(C2CC(c3ccc([N+](=O)[O-])cc3)C3=C(O2)C(=O)c2ccccc2C3=O)cc1` (stereo not drawn) [9c], in the series on DENV-2 [3] (100 μM), the “% of Inhibition of DENV-2 Replication (TCID50)” value is listed as 99.99%. For the same molecule, in the series on DENV-2 [2], the “% of Inhibition … (qPCR)” value was found to be 99.6%. Also, in the series on DENV-2 [2] (DENV-2 replication in Vero cells), the “IC50 of 9c fold lower than that of compound 9b” value is 5.3 fold. For the same molecule, the “Concentration to inhibit 50% of DENV replication, fold lower than aglycon analogue of teicoplanin” value in the series on DENV-2 [2] (Vero cells) was 20 fold. The IC50 turned out to be 0.311 µM with DENV-2 [2] (Vero cells) and 80 ± 12 µM in series [1] (600 nM NS3FL, 1 mM ATP). The “NS3 ATPase inhibition, statistical difference from control (unpaired t-test, p < 0.05)” value in series [1] (50 µM compound) is recorded as “statistically different”. The “Effect against the NS3 protease activity” value in series [4] is given as “did not observe any effect”. Also, the “Viability of uninfected host cell cultures” value in the series on Vero cells is on record as “did not reduce the viability”.
`Cc1ccc(C2CC(c3ccc([N+](=O)[O-])cc3)C3=C(O2)c2ccccc2C(=O)C3=O)cc1` (stereo not drawn) [8b]: the “NS3 ATPase inhibition, statistical difference from control (unpaired t-test, p < 0.05)” value in series [1] (50 µM compound) is given as “statistically different”.
As for `O=C1C2=C(C(=O)c3ccccc31)C(c1ccccc1)C1=C(O2)C(=O)c2ccccc2C1=O` [10a], the “% of Inhibition … (qPCR)” value in the series on DENV-2 [2] turned out to be 0%. Moreover, the “NS3 ATPase inhibition, statistical difference from control (unpaired t-test, p < 0.05)” value in series [1] (50 µM compound) is “statistically different”.
With `O=C1C2=C(C(=O)c3ccccc31)C(c1ccc([N+](=O)[O-])cc1)C1=C(O2)C(=O)c2ccccc2C1=O` [10b], the “% of Inhibition … (qPCR)” value in the series with DENV-2 [2] came to 0%. Also, in the series with DENV-2 [2] (Vero cells), the “Inhibition of DENV-2 replication (in words)” value was “did not inhibit DENV-2 replication”. In addition, the “NS3 ATPase inhibition, statistical difference from control (unpaired t-test, p < 0.05)” value in series [1] (50 µM compound) is “statistically different”.
In turn, `Cc1ccc(C2CC(c3ccc([N+](=O)[O-])cc3)C3=C(O2)C(=O)c2ccccc2C3=O)cc1` (stereo not drawn) [9b] had an inhibition at 100 µM in the series on DENV-2 [3] (Dengue virus, DENV2, Vero) of 99.8%. Also, the “% of Inhibition … (qPCR)” value in the series with DENV-2 [2] is 99.0%. The IC50 is 1.64 µM in the series on DENV-2 [2] (Vero cells) and greater than 100 µM in series [1] (600 nM NS3FL, 1 mM ATP). Further, in series [4], the “Effect against the NS3 protease activity” value is reported as “did not observe any effect”. For the same molecule, in the series with Vero cells, the “Viability of uninfected host cell cultures” value is listed as “did not reduce the viability”.
